The structures appear in SMILES notation. pIC50: −log10 of the molar value. Counter-ions that a name gives are not always drawn. Like-named read-outs stand apart in the source and are kept apart here.

In this assay the target is T1, human Nav1.8/b3 (Homo sapiens, UniProt Q9Y5Y9).
T1 construct: expressed in transfected cells; host or cells: CHO
Kind of assay: Compound Profiling Human NaV1.8/β3 Cell Line—SyncroPatch384PE Assay (automated patch clamp, stably transfected CHO cells). The note with it: Nav1.8/b3 CHO cells. The assay is classed as cell-based.

The mark [1] stands for this setting: P1 (IC50, resting state block), P1 measurement, resting state block, holding potential −120 mV, second set of compounds.
[2] abbreviates: P2 (IC50, inactivated state block), P2 measurement, inactivated state block, inactivation step −35 mV 10 sec, second set of compounds.
[3] abbreviates: P1 (IC50, resting state block), P1 measurement, resting state block, holding potential −120 mV, third set of compounds.
The mark [4] stands for this setting: P2 (IC50, inactivated state block), P2 measurement, inactivated state block, inactivation step −35 mV 10 sec, third set of compounds.
Setting [5] is: P1 (IC50, resting state block), P1 measurement, resting state block, holding potential −120 mV, fourth set of compounds.
Setting [6] is: P2 (IC50, inactivated state block), P2 measurement, inactivated state block, inactivation step −35 mV 10 sec, fourth set of compounds.
Where [7] appears, read: P1 (IC50, resting state block), P1 measurement, resting state block, holding potential −120 mV, first set of compounds.
Setting [8] is: P2 (IC50, inactivated state block), P2 measurement, inactivated state block, inactivation step −35 mV 10 sec, first set of compounds.

T1 sequence (Q9Y5Y9 whole entry): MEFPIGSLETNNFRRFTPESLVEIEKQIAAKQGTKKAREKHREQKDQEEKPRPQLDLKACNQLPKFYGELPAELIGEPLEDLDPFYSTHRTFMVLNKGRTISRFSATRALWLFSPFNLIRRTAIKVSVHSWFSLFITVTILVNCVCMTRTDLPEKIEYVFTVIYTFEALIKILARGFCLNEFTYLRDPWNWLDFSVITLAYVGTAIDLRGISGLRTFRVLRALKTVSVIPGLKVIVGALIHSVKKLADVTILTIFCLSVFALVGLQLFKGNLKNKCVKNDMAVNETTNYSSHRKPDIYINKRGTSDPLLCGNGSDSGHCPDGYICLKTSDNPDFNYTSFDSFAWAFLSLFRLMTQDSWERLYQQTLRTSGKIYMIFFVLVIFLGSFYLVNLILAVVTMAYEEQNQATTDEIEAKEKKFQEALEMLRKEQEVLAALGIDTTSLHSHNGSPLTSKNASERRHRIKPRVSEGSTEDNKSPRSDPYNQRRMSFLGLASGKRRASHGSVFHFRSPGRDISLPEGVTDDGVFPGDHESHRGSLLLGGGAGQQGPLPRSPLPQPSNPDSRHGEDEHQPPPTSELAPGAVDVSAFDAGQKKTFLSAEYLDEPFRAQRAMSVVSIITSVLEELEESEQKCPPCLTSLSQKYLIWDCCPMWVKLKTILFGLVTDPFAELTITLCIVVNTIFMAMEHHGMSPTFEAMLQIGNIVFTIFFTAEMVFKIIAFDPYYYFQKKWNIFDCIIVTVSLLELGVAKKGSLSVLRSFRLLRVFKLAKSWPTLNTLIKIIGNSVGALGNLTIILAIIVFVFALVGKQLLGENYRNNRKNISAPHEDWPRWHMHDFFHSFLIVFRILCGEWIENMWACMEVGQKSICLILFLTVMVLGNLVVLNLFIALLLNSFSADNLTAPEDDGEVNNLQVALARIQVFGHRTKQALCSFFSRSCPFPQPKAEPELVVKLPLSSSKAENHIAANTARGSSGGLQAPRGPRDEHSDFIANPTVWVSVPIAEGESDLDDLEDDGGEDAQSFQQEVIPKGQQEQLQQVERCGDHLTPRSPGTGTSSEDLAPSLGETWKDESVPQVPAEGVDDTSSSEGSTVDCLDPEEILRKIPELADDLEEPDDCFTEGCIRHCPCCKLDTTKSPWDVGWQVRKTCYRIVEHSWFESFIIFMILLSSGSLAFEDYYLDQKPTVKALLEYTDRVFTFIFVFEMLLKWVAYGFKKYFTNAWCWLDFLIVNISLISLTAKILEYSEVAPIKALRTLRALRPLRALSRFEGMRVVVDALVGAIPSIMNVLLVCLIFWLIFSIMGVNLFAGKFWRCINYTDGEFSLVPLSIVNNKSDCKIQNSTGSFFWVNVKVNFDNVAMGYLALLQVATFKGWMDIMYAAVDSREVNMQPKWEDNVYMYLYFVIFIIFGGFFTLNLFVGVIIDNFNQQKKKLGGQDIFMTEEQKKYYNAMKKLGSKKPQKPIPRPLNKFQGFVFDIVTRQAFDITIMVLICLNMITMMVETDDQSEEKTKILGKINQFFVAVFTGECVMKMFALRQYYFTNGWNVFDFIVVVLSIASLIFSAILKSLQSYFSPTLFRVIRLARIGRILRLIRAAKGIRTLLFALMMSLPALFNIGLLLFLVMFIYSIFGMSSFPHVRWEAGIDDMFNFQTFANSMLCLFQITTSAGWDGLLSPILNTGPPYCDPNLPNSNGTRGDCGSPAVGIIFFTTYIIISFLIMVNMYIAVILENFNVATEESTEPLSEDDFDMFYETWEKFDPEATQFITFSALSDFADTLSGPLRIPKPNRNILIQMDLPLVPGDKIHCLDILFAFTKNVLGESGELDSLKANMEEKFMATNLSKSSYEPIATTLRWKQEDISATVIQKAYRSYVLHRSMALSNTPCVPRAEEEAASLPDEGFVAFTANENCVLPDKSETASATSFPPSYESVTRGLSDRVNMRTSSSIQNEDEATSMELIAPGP
T1 sequence (Q9NY72 23-215 partner): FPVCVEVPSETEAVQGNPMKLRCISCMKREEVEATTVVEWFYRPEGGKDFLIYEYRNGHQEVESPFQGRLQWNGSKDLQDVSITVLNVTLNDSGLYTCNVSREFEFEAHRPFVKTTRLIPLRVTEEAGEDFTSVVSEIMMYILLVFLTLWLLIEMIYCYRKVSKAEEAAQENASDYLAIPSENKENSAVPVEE

Usually pIC50 stands for the IC50 on a negative log10 scale, so that one unit is a factor of ten. On to `Cc1nc(F)ccc1Oc1cc(C(F)(F)F)c(Cl)cc1C(=O)Nc1cccc([S@@](C)(=O)=NC(=O)C2(N)CCC2)c1` [Example 6B, (R)—N-(3-(N-(1-aminocyclobutane-1-carbonyl)-S-methylsulfonimidoyl)phenyl)-5-chloro-2-((6-fluoro-2-methylpyridin-3-yl)oxy)-4-(trifluoromethyl)benzamide], for which the pIC50 is above 8.30 under setting [1] and above 8.30 under setting [2].

On to `Cc1nc(F)ccc1Oc1ncc(-c2ccc(F)c(F)c2)c(C)c1C(=O)Nc1cccc([S@](C)(=N)=O)c1` [Example 6C, (R)-5-(3,4-difluorophenyl)-2-((6-fluoro-2-methylpyridin-3-yl)oxy)-4-methyl-N-(3-(S-methylsulfonimidoyl)phenyl)nicotinamide], for which the pIC50 under setting [3] is above 8.30 and the pIC50 under setting [4] was above 8.30.

On to `Cc1nc(F)ccc1Oc1ncc(C(F)(F)F)c(C)c1C(=O)Nc1cccc([S@@](C)(=O)=NC(=O)C2COC2)c1` [Example 6D, (R)-2-((6-fluoro-2-methylpyridin-3-yl)oxy)-4-methyl-N-(3-(S-methyl-N-(oxetane-3-carbonyl)sulfonimidoyl)phenyl)-5-(trifluoromethyl)nicotinamide], for which the pIC50 is above 8.30 under setting [5] and above 8.30 under setting [6].

Turning to `Cc1nc(F)ccc1Oc1ccc(-c2cnn(C)c2)c(C)c1C(=O)Nc1cccc([S@](C)(=N)=O)c1` [Example 7A, (R)-6-((6-fluoro-2-methylpyridin-3-yl)oxy)-2-methyl-3-(1-methyl-1H-pyrazol-4-yl)-N-(3-(S-methylsulfonimidoyl)phenyl)benzamide], the pIC50 by setting is: under setting [7], below 6.70; under setting [8], below 6.70.

With `Cc1nc(F)ccc1Oc1cc(C(F)(F)F)c(Cl)cc1C(=O)Nc1cccc([S@@](C)(=O)=NC(=O)C(C)(C)N)c1` [Example 7B, (R)—N-(3-(N-(2-amino-2-methylpropanoyl)-S-methylsulfonimidoyl)phenyl)-5-chloro-2-((6-fluoro-2-methylpyridin-3-yl)oxy)-4-(trifluoromethyl)benzamide], the pIC50 is above 8.30 under setting [1] and above 8.30 under setting [2].

With `Cc1nc(F)ccc1Oc1nnc(-c2ccc3c(c2)OCCO3)c(C)c1C(=O)Nc1cccc([S@](C)(=N)=O)c1` [Example 7C, (R)-6-(2,3-dihydrobenzo[b][1,4]dioxin-6-yl)-3-((6-fluoro-2-methylpyridin-3-yl)oxy)-5-methyl-N-(3-(S-methylsulfonimidoyl)phenyl)pyridazine-4-carboxamide], the pIC50 is, setting by setting: under setting [3], above 8.30; under setting [4], above 8.30.

`Cc1nc(F)ccc1Oc1ncc(C(F)(F)F)c(C)c1C(=O)Nc1cccc([S@@](C)(=O)=NC(=O)[C@@H]2CCCO2)c1` [Example 7D, 2-((6-fluoro-2-methylpyridin-3-yl)oxy)-4-methyl-N-(3-((R)—S-methyl-N—((S)-tetrahydrofuran-2-carbonyl)sulfonimidoyl)phenyl)-5-(trifluoromethyl)nicotinamide]: the pIC50 is above 8.30 under setting [5] and above 8.30 under setting [6].

As to `Cc1nc(F)ccc1Oc1cc(C(F)(F)F)ccc1C(=O)Nc1cccc([S@@](C)(=O)=NC(=O)[C@@H]2CCCN2)c1` [Example 8B, (S)—N—((R)-(3-(2-((6-fluoro-2-methylpyridin-3-yl)oxy)-4-(trifluoromethyl)benzamido)phenyl)(methyl)(oxo)-λ^6-sulfaneylidene)pyrrolidine-2-carboxamide formate], the pIC50 is above 8.30 (P1 measurement, resting state block, holding potential −120 mV, second set of compounds, read-out: P1 (IC50, resting state block)) and above 8.30 (P2 measurement, inactivated state block, inactivation step −35 mV 10 sec, second set of compounds, read-out: P2 (IC50, inactivated state block)).

On to `Cc1nc(F)ccc1Oc1ncc(C(F)(F)F)c(C)c1C(=O)Nc1cccc(S(N)(=O)=O)c1` [Example 8C, 2-((6-fluoro-2-methylpyridin-3-yl)oxy)-4-methyl-N-(3-sulfamoylphenyl)-5-(trifluoromethyl)nicotinamide], for which the pIC50 reads like this: under setting [3], above 8.30; under setting [4], above 8.30.

The compound `COCC(=O)N=[S@](C)(=O)c1cccc(NC(=O)c2c(Oc3ccc(F)nc3C)ncc(C(F)(F)F)c2C)c1` [Example 8D, (R)-2-((6-fluoro-2-methylpyridin-3-yl)oxy)-N-(3-(N-(2-methoxyacetyl)-S-methylsulfonimidoyl)phenyl)-4-methyl-5-(trifluoromethyl)nicotinamide] had a pIC50 under setting [5] above 8.30 and a pIC50 under setting [6] above 8.30.

Consider `Cc1nc(F)ccc1Oc1cc(C2CC2)c(C(F)(F)F)c(C)c1C(=O)Nc1cccc([S@](C)(=N)=O)c1` [Example 9A, (R)-4-cyclopropyl-6-((6-fluoro-2-methylpyridin-3-yl)oxy)-2-methyl-N-(3-(S-methylsulfonimidoyl)phenyl)-3-(trifluoromethyl)benzamide], for which the pIC50 was above 8.30 (P1 measurement, resting state block, holding potential −120 mV, first set of compounds, read-out: P1 (IC50, resting state block)) and above 8.30 (P2 measurement, inactivated state block, inactivation step −35 mV 10 sec, first set of compounds, read-out: P2 (IC50, inactivated state block)).

In the case of `Cc1nc(F)ccc1Oc1cc(C(F)(F)F)ccc1C(=O)Nc1cccc([S@@](C)(=O)=NC(=O)[C@@H](C)N)c1` [Example 9B, N-(3-((R)—N-(D-alanyl)-S-methylsulfonimidoyl)phenyl)-2-((6-fluoro-2-methylpyridin-3-yl)oxy)-4-(trifluoromethyl)benzamide], the pIC50 is above 8.30 under setting [1] and above 8.30 under setting [2].

Take `Cc1nc(F)ccc1Oc1nnc(C(F)(F)F)c(C)c1C(=O)Nc1cccc([S@](C)(=N)=O)c1` [Example 9C, (R)-3-((6-fluoro-2-methylpyridin-3-yl)oxy)-5-methyl-N-(3-(S-methylsulfonimidoyl)phenyl)-6-(trifluoromethyl)pyridazine-4-carboxamide]: the pIC50 by setting is: under setting [3], 7.00 to 7.30; under setting [4], 7.00 to 7.30.

For `Cc1nc(F)ccc1Oc1ncc(C(F)(F)F)c(C)c1C(=O)Nc1cccc([S@@](C)(=O)=NC(=O)[C@@H](C)N)c1` [Example 9D, N-(3-((R)—N-(D-alanyl)-S-methylsulfonimidoyl)phenyl)-2-((6-fluoro-2-methylpyridin-3-yl)oxy)-4-methyl-5-(trifluoromethyl)nicotinamide formate], the pIC50 runs as follows: under setting [5], above 8.30; under setting [6], above 8.30.

`Cc1nc(F)ccc1Oc1cc(C(F)(F)F)c(Cl)c(C)c1C(=O)Nc1cccc([S@](C)(=N)=O)c1` [Example 10A, (R)-3-chloro-6-((6-fluoro-2-methylpyridin-3-yl)oxy)-2-methyl-N-(3-(S-methylsulfonimidoyl)phenyl)-4-(trifluoromethyl)benzamide] gave a pIC50 under setting [7] above 8.30 and a pIC50 under setting [8] above 8.30.

Consider `CNCC(=O)N=[S@](C)(=O)c1cccc(NC(=O)c2ccc(C(F)(F)F)cc2Oc2ccc(F)nc2C)c1` [Example 10B, (R)-2-((6-fluoro-2-methylpyridin-3-yl)oxy)-N-(3-(S-methyl-N-(methylglycyl)sulfonimidoyl)phenyl)-4-(trifluoromethyl)benzamide], for which the pIC50 is 7.30 to 8.30 under setting [1] and 7.30 to 8.30 under setting [2].

Take `Cc1nc(F)ccc1Oc1ncc(C(F)(F)F)c(C)c1C(=O)Nc1cccc([S@@](C)(=O)=NC(=O)[C@@H]2CCOC2)c1` [Example 10D, 2-((6-fluoro-2-methylpyridin-3-yl)oxy)-4-methyl-N-(3-((R)—S-methyl-N—((R)-tetrahydrofuran-3-carbonyl)sulfonimidoyl)phenyl)-5-(trifluoromethyl)nicotinamide]: the pIC50 reads like this: under setting [5], above 8.30; under setting [6], above 8.30.

Regarding `Cc1nc(F)ccc1Oc1cc(C(F)(F)F)ccc1C(=O)Nc1cccc([S@@](C)(=O)=NC(=O)CO)c1` [Example 11B, (R)-2-((6-fluoro-2-methylpyridin-3-yl)oxy)-N-(3-(N-(2-hydroxyacetyl)-S-methylsulfonimidoyl)phenyl)-4-(trifluoromethyl)benzamide], the pIC50 by setting is: under setting [1], 7.30 to 8.30; under setting [2], 7.30 to 8.30.

As for `Cc1nc(F)ccc1Oc1ncc(C(F)(F)F)c(C)c1C(=O)Nc1cccc([S@@](C)(=O)=NC(=O)C(N)C(F)(F)F)c1` (stereo partly drawn) [Example 11D, N-(3-((R)—N-(2-amino-3,3,3-trifluoropropanoyl)-S-methylsulfonimidoyl)phenyl)-2-((6-fluoro-2-methylpyridin-3-yl)oxy)-4-methyl-5-(trifluoromethyl)nicotinamide], the pIC50 runs as follows: under setting [5], above 8.30; under setting [6], above 8.30.

Compound `Cc1nc(F)ccc1Oc1cc(C(F)(F)F)ccc1C(=O)Nc1cccc([S@@](C)(=O)=NC(=O)[C@H](C)O)c1` [Example 12B, 2-((6-fluoro-2-methylpyridin-3-yl)oxy)-N-(3-((R)—N—((S)-2-hydroxypropanoyl)-S-methylsulfonimidoyl)phenyl)-4-(trifluoromethyl)benzamide] gave a pIC50 under setting [1] of 7.30 to 8.30 and a pIC50 under setting [2] of 7.30 to 8.30.

As for `Cc1nc(F)ccc1Oc1ncc(C2CC2)c(C)c1C(=O)Nc1cccc([S@](C)(=N)=O)c1` [Example 12C, (R)-5-cyclopropyl-2-((6-fluoro-2-methylpyridin-3-yl)oxy)-4-methyl-N-(3-(S-methylsulfonimidoyl)phenyl)nicotinamide], the pIC50 is, setting by setting: under setting [3], 7.00 to 7.30; under setting [4], 7.00 to 7.30.

For the origin of these results see patent US20260356804A1, “SODIUM CHANNEL BLOCKING COMPOUNDS, DERIVATIVES THEREOF, AND METHODS OF THEIR USE” (LATIGO BIOTHERAPEUTICS, INC., priority 2022, published 2026).
